Test results published in ChEMBL document CHEMBL5352412, “Discovery of 1,2-diphenylethene derivatives as human DNA topoisomerase II catalytic inhibitors and antitumor agents” (Eur J Med Chem, 2022).
Activity calls are given as the source filed them. No cut-off for these calls is given here.

Tests used:
[1] = target: T1, DNA topoisomerase 2-alpha (Homo sapiens, UniProt P11388); assay: Inhibition of human topoisomerase 2-alpha assessed as reduction in relaxation of pBR322 DNA at 25 uM measured after 30 mins by agarose gel electrophoresis method relative to control
T1 sequence (P11388 whole entry): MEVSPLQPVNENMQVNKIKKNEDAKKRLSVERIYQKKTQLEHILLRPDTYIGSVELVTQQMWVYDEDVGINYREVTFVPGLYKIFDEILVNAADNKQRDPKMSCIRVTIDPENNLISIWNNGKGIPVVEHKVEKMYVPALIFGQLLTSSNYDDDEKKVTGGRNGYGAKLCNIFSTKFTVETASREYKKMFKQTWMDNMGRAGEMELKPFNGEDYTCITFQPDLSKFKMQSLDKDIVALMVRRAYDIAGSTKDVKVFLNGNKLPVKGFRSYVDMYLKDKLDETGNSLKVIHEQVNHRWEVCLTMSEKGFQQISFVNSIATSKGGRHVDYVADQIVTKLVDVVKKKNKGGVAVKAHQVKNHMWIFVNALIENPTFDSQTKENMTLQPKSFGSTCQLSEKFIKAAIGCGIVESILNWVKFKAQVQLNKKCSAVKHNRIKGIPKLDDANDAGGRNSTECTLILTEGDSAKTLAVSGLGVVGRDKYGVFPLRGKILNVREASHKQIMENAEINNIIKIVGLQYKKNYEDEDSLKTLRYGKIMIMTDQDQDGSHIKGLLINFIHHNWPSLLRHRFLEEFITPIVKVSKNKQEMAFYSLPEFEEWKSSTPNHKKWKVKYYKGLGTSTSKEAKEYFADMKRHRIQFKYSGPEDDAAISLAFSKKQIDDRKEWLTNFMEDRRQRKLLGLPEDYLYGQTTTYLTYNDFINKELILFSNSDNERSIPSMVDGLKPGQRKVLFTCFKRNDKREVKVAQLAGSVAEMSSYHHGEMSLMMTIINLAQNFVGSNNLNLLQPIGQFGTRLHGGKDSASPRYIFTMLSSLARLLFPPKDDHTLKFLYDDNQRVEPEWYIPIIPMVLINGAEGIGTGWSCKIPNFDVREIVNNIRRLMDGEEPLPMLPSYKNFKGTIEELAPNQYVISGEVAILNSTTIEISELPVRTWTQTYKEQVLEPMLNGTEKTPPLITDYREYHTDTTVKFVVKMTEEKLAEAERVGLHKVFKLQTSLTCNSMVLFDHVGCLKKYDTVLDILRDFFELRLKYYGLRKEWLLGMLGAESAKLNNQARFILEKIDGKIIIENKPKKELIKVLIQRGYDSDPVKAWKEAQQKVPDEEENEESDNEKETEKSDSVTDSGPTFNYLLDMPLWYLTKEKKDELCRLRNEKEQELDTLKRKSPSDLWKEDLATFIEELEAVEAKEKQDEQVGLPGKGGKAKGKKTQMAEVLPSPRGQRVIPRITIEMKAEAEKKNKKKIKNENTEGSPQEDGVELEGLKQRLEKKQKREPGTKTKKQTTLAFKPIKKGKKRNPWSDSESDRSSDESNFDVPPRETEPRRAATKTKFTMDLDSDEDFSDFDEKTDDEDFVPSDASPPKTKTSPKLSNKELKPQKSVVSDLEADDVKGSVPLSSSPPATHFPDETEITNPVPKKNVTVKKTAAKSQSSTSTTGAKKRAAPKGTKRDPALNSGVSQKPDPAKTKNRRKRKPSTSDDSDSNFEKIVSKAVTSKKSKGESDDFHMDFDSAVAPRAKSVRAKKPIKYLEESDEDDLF

HepG2 [2] = assay: Upregulation of gamma-H2AX level in human HepG2 cells incubated for 4 hrs by Western blotting analysis; type: functional, cell-based
[3] = Selectivity index, ratio of IC50 for human BEAS-2B cells to IC50 for human HCT-116 cells; type: toxicity; conditions: BEAS-2B cells versus HCT-116 cells, read-out: Ratio IC50
DNA topoisomerase 2-beta = DNA topoisomerase 2-beta (Homo sapiens, UniProt Q02880); assay: Inhibition of human topoisomerase 2-beta assessed as reduction in relaxation of pBR322 DNA measured after 30 mins by agarose gel electrophoresis method
DNA topoisomerase 2-beta, sequence (Q02880 whole entry): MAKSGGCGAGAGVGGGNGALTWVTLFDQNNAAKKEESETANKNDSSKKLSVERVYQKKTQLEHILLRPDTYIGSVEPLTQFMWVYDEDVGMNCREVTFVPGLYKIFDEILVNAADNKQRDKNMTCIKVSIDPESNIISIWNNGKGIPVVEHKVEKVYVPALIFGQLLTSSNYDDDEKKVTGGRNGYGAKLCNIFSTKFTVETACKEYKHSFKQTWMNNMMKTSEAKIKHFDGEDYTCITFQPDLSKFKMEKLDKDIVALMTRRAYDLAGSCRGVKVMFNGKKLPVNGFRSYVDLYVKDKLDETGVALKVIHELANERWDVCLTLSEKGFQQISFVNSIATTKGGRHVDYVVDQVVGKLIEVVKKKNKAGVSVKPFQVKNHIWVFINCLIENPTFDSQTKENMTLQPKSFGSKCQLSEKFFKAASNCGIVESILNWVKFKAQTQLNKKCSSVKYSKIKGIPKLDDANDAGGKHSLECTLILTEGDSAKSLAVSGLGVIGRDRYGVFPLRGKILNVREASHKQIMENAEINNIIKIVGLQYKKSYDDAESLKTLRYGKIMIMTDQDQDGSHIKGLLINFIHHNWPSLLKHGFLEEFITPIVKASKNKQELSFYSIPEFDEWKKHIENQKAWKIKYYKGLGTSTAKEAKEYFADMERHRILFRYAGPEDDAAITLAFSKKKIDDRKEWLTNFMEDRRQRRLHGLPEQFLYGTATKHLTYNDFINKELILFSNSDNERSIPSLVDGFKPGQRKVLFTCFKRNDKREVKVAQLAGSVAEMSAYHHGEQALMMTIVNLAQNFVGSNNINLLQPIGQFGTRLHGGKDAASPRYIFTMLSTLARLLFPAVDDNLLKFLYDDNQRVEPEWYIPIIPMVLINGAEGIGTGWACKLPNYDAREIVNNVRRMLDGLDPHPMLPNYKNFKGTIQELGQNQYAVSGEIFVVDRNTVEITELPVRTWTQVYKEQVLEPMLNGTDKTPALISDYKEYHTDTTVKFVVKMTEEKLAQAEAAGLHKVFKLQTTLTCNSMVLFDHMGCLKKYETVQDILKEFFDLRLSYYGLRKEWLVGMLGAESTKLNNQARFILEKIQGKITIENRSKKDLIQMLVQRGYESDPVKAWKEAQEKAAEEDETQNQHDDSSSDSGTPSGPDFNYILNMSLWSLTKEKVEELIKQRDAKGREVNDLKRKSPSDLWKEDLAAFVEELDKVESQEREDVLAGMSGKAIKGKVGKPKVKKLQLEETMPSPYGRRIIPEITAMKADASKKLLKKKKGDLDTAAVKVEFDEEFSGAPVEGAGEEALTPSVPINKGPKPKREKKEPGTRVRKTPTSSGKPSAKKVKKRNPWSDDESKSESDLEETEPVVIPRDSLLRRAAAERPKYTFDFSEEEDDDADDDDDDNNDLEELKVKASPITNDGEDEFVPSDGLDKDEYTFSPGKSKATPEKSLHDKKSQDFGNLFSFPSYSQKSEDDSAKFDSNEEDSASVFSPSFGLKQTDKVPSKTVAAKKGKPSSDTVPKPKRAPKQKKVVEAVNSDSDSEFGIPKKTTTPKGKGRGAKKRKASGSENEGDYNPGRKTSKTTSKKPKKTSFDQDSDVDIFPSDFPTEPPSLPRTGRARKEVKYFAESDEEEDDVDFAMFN

[4] = Selectivity index, ratio of IC50 for human HL-7702 cells to IC50 for human HeLa cells; type: toxicity; conditions: HL-7702 cells versus HeLa cells, read-out: Ratio IC50
[5] = Antiproliferative activity against human BEAS-2B cells incubated for 72 hrs by CCK8 assay; type: toxicity, cell-based
[6] = Selectivity index, ratio of IC50 for human BEAS-2B cells to IC50 for human HeLa cells; type: toxicity; conditions: BEAS-2B cells versus HeLa cells, read-out: Ratio IC50
Homo sapiens [7] = species: Homo sapiens; assay: Selectivity index, ratio of IC50 for human CCL-226 cells to IC50 for human HepG2 cells
HepG2 [8] = assay: Induction of cell cycle arrest in human HepG2 cells assessed as accumulation of cells at G2/M phase at 1 uM incubated for 24 hrs by PI staining based flow cytometry analysis (reference value: 17.5%); type: functional
HepG2 [9] = assay: Induction of cell cycle arrest in human HepG2 cells assessed as accumulation of cells at G1 phase at 1 uM incubated for 24 hrs by PI staining based flow cytometry analysis (reference value: 54%); type: functional
[10] = target: T1, DNA topoisomerase 2-alpha; assay: Inhibition of human topoisomerase 2-alpha assessed as reduction in relaxation of pBR322 DNA measured after 30 mins by agarose gel electrophoresis method
HepG2 [11] = assay: Induction of apoptosis in human HepG2 cells assessed as necrotic cells at 0.5 uM incubated for 24 hrs by annexin-V FITC and PI staining based flow cytometry analysis (reference value: 0.2%); type: functional
Homo sapiens [12] = species: Homo sapiens; assay: Selectivity index, ratio of IC50 for human CCL-226 cells to IC50 for human PC-3 cells
[13] = Selectivity index, ratio of IC50 for human HL-7702 cells to IC50 for human PC-3 cells; type: toxicity; conditions: HL-7702 cells versus PC-3 cells, read-out: Ratio IC50

inhibition [1]: 84.6% | IC50 (DNA topoisomerase 2-beta): 10.1 µM | Ratio IC50 (Homo sapiens [7]): > 52.1 | IC50 [10]: 3.8 µM | Ratio IC50 (Homo sapiens [12]): > 52.1
Compound: O=C(CCc1ccccc1)Nc1ccc(-c2ccc3cc(O)ccc3c2)cc1
Activity (HepG2 [2]): inactive | selectivity ratio [3]: > 52.1 | selectivity ratio [4]: > 52.1 | IC50 at 72 h [5]: 31.9 µM | selectivity ratio [6]: > 52.1 | Activity (HepG2 [8]): 84.1% | Activity (HepG2 [9]): 3.3% | Activity (HepG2 [11]): 0.1% | selectivity ratio [13]: > 52.1
